# Reference: PubChem BioAssay (NCI)
#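 Briefly, cells in 96-well plates were exposed to five compound concentrations for 48 h, and endpoints were estimated by linear interpolation. GI50: concentration for 50% inhibition of growth. TGI: total growth inhibition.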
# Assays:
# Test in all cases: DTP human tumour cell line panel, 48 h
# 786-0 renal = system: 786-0 renal
# A498 renal = system: A498 renal
# A549 NSCLC = system: A549 NSCLC
# ACHN renal = system: ACHN renal
# BT-549 breast = system: BT-549 breast
# CAKI-1 renal = system: CAKI-1 renal
# COLO 205 colon = system: COLO 205 colon
# DU-145 prostate = system: DU-145 prostate
# EKVX NSCLC = system: EKVX NSCLC
# HCC-2998 colon = system: HCC-2998 colon
# HCT-15 colon = system: HCT-15 colon
# HOP-62 NSCLC = system: HOP-62 NSCLC
# HOP-92 NSCLC = system: HOP-92 NSCLC
# HS 578T breast = system: HS 578T breast
# HT29 colon = system: HT29 colon
# IGROV1 ovarian = system: IGROV1 ovarian
# KM12 colon = system: KM12 colon
# M14 melanoma = system: M14 melanoma
# MALME-3M melanoma = system: MALME-3M melanoma
# MDA-MB-231 breast = system: MDA-MB-231 breast
# MDA-MB-435 = system: MDA-MB-435
# MOLT-4 leukemia = system: MOLT-4 leukemia
# NCI-H226 lung = system: NCI-H226 lung
# NCI-H23 lung = system: NCI-H23 lung
# NCI-H460 lung = system: NCI-H460 lung
# NCI-H522 lung = system: NCI-H522 lung
# NCI/ADR-RES ovarian = system: NCI/ADR-RES ovarian
# OVCAR-3 ovarian = system: OVCAR-3 ovarian
# OVCAR-4 ovarian = system: OVCAR-4 ovarian
# OVCAR-5 ovarian = system: OVCAR-5 ovarian
# OVCAR-8 ovarian = system: OVCAR-8 ovarian
# PC-3 prostate = system: PC-3 prostate
# SF-268 CNS = system: SF-268 CNS
# SF-295 CNS = system: SF-295 CNS
# SF-539 CNS = system: SF-539 CNS
# SK-MEL-28 melanoma = system: SK-MEL-28 melanoma
# SK-OV-3 ovarian = system: SK-OV-3 ovarian
# SN12C renal = system: SN12C renal
# SNB-19 CNS = system: SNB-19 CNS
# SNB-75 CNS = system: SNB-75 CNS
# SR leukemia = system: SR leukemia
# SW-620 colon = system: SW-620 colon
# T-47D breast = system: T-47D breast
# TK-10 renal = system: TK-10 renal
# U251 CNS = system: U251 CNS
# UACC-257 melanoma = system: UACC-257 melanoma
# UACC-62 melanoma = system: UACC-62 melanoma
# UO-31 renal = system: UO-31 renal
# HCT-116 colon = system: HCT-116 colon
# HL-60(TB) leukemia = system: HL-60(TB) leukemia
# CCRF-CEM leukemia = system: CCRF-CEM leukemia
# K-562 leukemia = system: K-562 leukemia
# RXF 393 renal = system: RXF 393 renal
# SK-MEL-2 melanoma = system: SK-MEL-2 melanoma
# SK-MEL-5 melanoma = system: SK-MEL-5 melanoma
# LOX IMVI melanoma = system: LOX IMVI melanoma
# RPMI-8226 leukemia = system: RPMI-8226 leukemia
structure (smiles),measurement,setting,value
O=C(/C=C/c1cccs1)c1ccc(C(=O)/C=C/c2cccs2)cc1,TGI,786-0 renal,> 100 µM
same,TGI,A498 renal,> 100 µM
same,TGI,A549 NSCLC,> 100 µM
same,TGI,ACHN renal,> 100 µM
same,TGI,BT-549 breast,> 100 µM
same,TGI,CAKI-1 renal,> 100 µM
same,TGI,COLO 205 colon,> 100 µM
same,TGI,DU-145 prostate,> 100 µM
same,TGI,EKVX NSCLC,> 100 µM
same,TGI,HCC-2998 colon,> 100 µM
same,TGI,HCT-15 colon,> 100 µM
same,TGI,HOP-62 NSCLC,> 100 µM
same,TGI,HOP-92 NSCLC,> 100 µM
same,TGI,HS 578T breast,> 100 µM
same,TGI,HT29 colon,> 100 µM
same,TGI,IGROV1 ovarian,> 100 µM
same,TGI,KM12 colon,> 100 µM
same,TGI,M14 melanoma,> 100 µM
same,TGI,MALME-3M melanoma,> 100 µM
same,TGI,MDA-MB-231 breast,> 100 µM
same,TGI,MDA-MB-435,> 100 µM
same,TGI,MOLT-4 leukemia,> 100 µM
same,TGI,NCI-H226 lung,> 100 µM
same,TGI,NCI-H23 lung,> 100 µM
same,TGI,NCI-H460 lung,> 100 µM
same,TGI,NCI-H522 lung,> 100 µM
same,TGI,NCI/ADR-RES ovarian,> 100 µM
same,TGI,OVCAR-3 ovarian,> 100 µM
same,TGI,OVCAR-4 ovarian,> 100 µM
same,TGI,OVCAR-5 ovarian,> 100 µM
same,TGI,OVCAR-8 ovarian,> 100 µM
same,TGI,PC-3 prostate,> 100 µM
same,TGI,SF-268 CNS,> 100 µM
same,TGI,SF-295 CNS,> 100 µM
same,TGI,SF-539 CNS,> 100 µM
same,TGI,SK-MEL-28 melanoma,> 100 µM
same,TGI,SK-OV-3 ovarian,> 100 µM
same,TGI,SN12C renal,> 100 µM
same,TGI,SNB-19 CNS,> 100 µM
same,TGI,SNB-75 CNS,> 100 µM
same,TGI,SR leukemia,> 100 µM
same,TGI,SW-620 colon,> 100 µM
same,TGI,T-47D breast,> 100 µM
same,TGI,TK-10 renal,> 100 µM
same,TGI,U251 CNS,> 100 µM
same,TGI,UACC-257 melanoma,> 100 µM
same,TGI,UACC-62 melanoma,> 100 µM
same,TGI,UO-31 renal,> 100 µM
c1ccc2cc(Cn3c(-c4ccc5ccccc5c4)[n+](Cc4ccc5ccccc5c4)c4ccccc43)ccc2c1,GI50,ACHN renal,752 nM
same,TGI,ACHN renal,2.04 µM
same,GI50,DU-145 prostate,399 nM
same,TGI,DU-145 prostate,1.52 µM
same,GI50,HCC-2998 colon,365 nM
same,TGI,HCC-2998 colon,1.47 µM
same,GI50,HCT-116 colon,193 nM
same,TGI,HCT-116 colon,598 nM
same,GI50,HL-60(TB) leukemia,293 nM
same,TGI,HL-60(TB) leukemia,944 nM
same,GI50,HOP-92 NSCLC,85.2 nM
same,TGI,HOP-92 NSCLC,0.416 µM
same,GI50,KM12 colon,269 nM
same,TGI,KM12 colon,0.869 µM
same,GI50,MALME-3M melanoma,215 nM
same,TGI,MALME-3M melanoma,0.649 µM
same,GI50,MDA-MB-231 breast,218 nM
same,TGI,MDA-MB-231 breast,0.961 µM
same,GI50,MDA-MB-435,296 nM
same,TGI,MDA-MB-435,1.03 µM
same,GI50,NCI-H226 lung,481 nM
same,TGI,NCI-H226 lung,2.46 µM
same,GI50,OVCAR-5 ovarian,410 nM
same,TGI,OVCAR-5 ovarian,1.59 µM
same,GI50,PC-3 prostate,228 nM
same,TGI,PC-3 prostate,0.763 µM
same,GI50,SF-539 CNS,381 nM
same,TGI,SF-539 CNS,1.52 µM
same,GI50,SK-MEL-28 melanoma,362 nM
same,TGI,SK-MEL-28 melanoma,1.28 µM
same,GI50,SNB-75 CNS,182 nM
same,TGI,SNB-75 CNS,0.827 µM
same,GI50,SW-620 colon,310 nM
same,TGI,SW-620 colon,1.22 µM
same,GI50,UACC-62 melanoma,277 nM
same,TGI,UACC-62 melanoma,0.89 µM
same,GI50,UO-31 renal,781 nM
same,TGI,UO-31 renal,2.3 µM
Nc1ccc(Oc2ccc(C3(c4ccc(Oc5ccc(N)c(O)c5)cc4)C4CC5C6CC7CC5C3C(C7)C6C4)cc2)cc1O,TGI,786-0 renal,3.4 µM
same,TGI,A498 renal,4.73 µM
same,TGI,ACHN renal,3.18 µM
same,TGI,BT-549 breast,> 31.2 µM
same,TGI,CAKI-1 renal,6.72 µM
same,TGI,CCRF-CEM leukemia,> 100 µM
same,TGI,DU-145 prostate,3.54 µM
same,TGI,EKVX NSCLC,> 24.1 µM
same,TGI,HCC-2998 colon,4.96 µM
same,TGI,HCT-15 colon,10.3 µM
same,TGI,HL-60(TB) leukemia,> 100000 nM
same,TGI,HOP-92 NSCLC,5.02 µM
same,TGI,HS 578T breast,> 100 µM
same,TGI,IGROV1 ovarian,4.68 µM
same,TGI,K-562 leukemia,5.35 µM
same,TGI,KM12 colon,3.85 µM
same,TGI,MALME-3M melanoma,> 24.2 µM
same,TGI,MOLT-4 leukemia,4.99 µM
same,TGI,NCI-H460 lung,> 100 µM
same,TGI,NCI/ADR-RES ovarian,> 100 µM
same,TGI,OVCAR-4 ovarian,5.73 µM
same,TGI,OVCAR-5 ovarian,5.76 µM
same,TGI,PC-3 prostate,3.48 µM
same,TGI,RXF 393 renal,4.5 µM
same,TGI,SF-539 CNS,> 21.6 µM
same,TGI,SK-MEL-2 melanoma,5.64 µM
same,TGI,SK-MEL-28 melanoma,> 26.5 µM
same,TGI,SK-MEL-5 melanoma,> 26.4 µM
same,TGI,SN12C renal,3.19 µM
same,TGI,SNB-19 CNS,24.2 µM
same,TGI,SR leukemia,> 100 µM
same,TGI,SW-620 colon,> 100 µM
same,TGI,TK-10 renal,> 26 µM
same,TGI,UACC-257 melanoma,14.6 µM
same,TGI,UACC-62 melanoma,17.7 µM
same,TGI,UO-31 renal,8.12 µM
Cc1cc2nc3c(C#N)c(-c4ccccc4)cc(Nc4ccc(F)cc4)n3c2cc1C,TGI,786-0 renal,22.5 µM
same,TGI,A498 renal,93.5 µM
same,TGI,ACHN renal,> 100 µM
same,TGI,BT-549 breast,56.3 µM
same,TGI,CAKI-1 renal,> 100 µM
same,TGI,COLO 205 colon,> 100 µM
same,TGI,EKVX NSCLC,52.9 µM
same,TGI,HCT-116 colon,> 100000 nM
same,TGI,HCT-15 colon,> 100 µM
same,TGI,HOP-62 NSCLC,36.6 µM
same,TGI,HOP-92 NSCLC,36.5 µM
same,TGI,HT29 colon,> 100 µM
same,TGI,KM12 colon,> 100 µM
same,TGI,LOX IMVI melanoma,29 µM
same,TGI,MALME-3M melanoma,70 µM
same,TGI,MDA-MB-231 breast,51.1 µM
same,TGI,MDA-MB-435,> 100 µM
same,TGI,MOLT-4 leukemia,> 100 µM
same,TGI,NCI-H226 lung,73.7 µM
same,TGI,NCI-H23 lung,47.2 µM
same,TGI,NCI-H522 lung,30.7 µM
same,TGI,NCI/ADR-RES ovarian,71.6 µM
same,TGI,OVCAR-3 ovarian,46.4 µM
same,TGI,OVCAR-4 ovarian,> 100 µM
same,TGI,OVCAR-5 ovarian,45.2 µM
same,TGI,OVCAR-8 ovarian,25.5 µM
same,TGI,RPMI-8226 leukemia,> 100 µM
same,TGI,RXF 393 renal,61.3 µM
same,TGI,SF-268 CNS,27.9 µM
same,TGI,SF-295 CNS,76.2 µM
same,TGI,SF-539 CNS,34.8 µM
same,TGI,SK-MEL-28 melanoma,> 100 µM
same,TGI,SK-MEL-5 melanoma,> 100 µM
same,TGI,SK-OV-3 ovarian,69.9 µM
same,TGI,SN12C renal,53.7 µM
same,TGI,SNB-75 CNS,57.5 µM
same,TGI,SW-620 colon,> 100 µM
same,TGI,T-47D breast,> 100 µM
same,TGI,TK-10 renal,39.3 µM
same,TGI,U251 CNS,16.3 µM
same,TGI,UACC-257 melanoma,> 100 µM
